The source made the active and inactive calls. The calls are words filed in the database; no cut-off is given here.
Tests used:
[1] = molecular target: T1, Oxysterols receptor LXR-alpha (Homo sapiens) (UniProt Q13133); test: Inhibition of LXRalpha in HEK293 cells expressing LXRE at 2.5 to 5 uM preincubated for 30 mins followed by T0901317 addition and measured after 24 hrs by Dual-glo luciferase assay; type: cell-based; settings: dose 2.5-5 µM, time 24.5 hrs
T1 sequence (whole entry): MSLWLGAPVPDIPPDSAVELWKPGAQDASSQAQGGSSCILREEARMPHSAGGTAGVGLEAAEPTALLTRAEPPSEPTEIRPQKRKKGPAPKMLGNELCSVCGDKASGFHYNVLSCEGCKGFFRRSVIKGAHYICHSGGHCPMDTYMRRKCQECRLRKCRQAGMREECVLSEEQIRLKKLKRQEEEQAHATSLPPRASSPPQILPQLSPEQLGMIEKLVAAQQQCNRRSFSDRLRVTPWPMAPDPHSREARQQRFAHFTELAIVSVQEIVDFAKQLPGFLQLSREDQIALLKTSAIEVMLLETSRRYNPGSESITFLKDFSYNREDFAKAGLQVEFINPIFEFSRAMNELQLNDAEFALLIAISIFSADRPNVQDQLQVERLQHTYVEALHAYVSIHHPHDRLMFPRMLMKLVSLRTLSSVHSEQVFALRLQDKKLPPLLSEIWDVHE

HepG2 = test: Downregulation of acetylated histone H3K9 level in human HepG2 cells preincubated for 30 mins followed by T0901317 addition and measured after 12 hrs; type: functional, cell-based; settings: dose 5-10 µM, time 12.5 hrs

## COc1ccccc1Nc1c(N[C@H]2CC[C@H](Oc3ccc([N+](=O)[O-])cc3)CC2)c(=O)c1=O
[1]
  inhibition: Active
HepG2
  Activity: Dose-dependent-effect
